The values that follow come from patent US20210379095A1, “Methods and Combination Therapy to Treat Biliary Tract Cancer” (ARRAY BIOPHARMA INC., priority 2018, published 2021).

Experiment [1] has as its system thymidylate synthase (TS). As to the kind of experiment: Western blot of protein expression in BTC cells. It counts as cell-based. The following applies: 48 hours. As for the experimental part:
The effect of binimetinib, 5-fluorouracil (5-FU), or combination of these drugs on cell viability was evaluated using eight BTC cell lines (SNU245, SNU308, SNU478, SNU869, SNU1079, SNU1196, TFK1, and HuCCT1). As capecitabine is converted to 5-FU in vivo, 5-FU was used as an […] of oral administration of capecitabine in this preclinical study in cell lines. […] Subsequently, cell viability was measured at 540 nm with a Multiskan GO microplate reader using a commercially available MTT assay, according to the manufacturer's directions. The Chou-Talalay method was used to assess a combination effect. […] Actin was included as a loading control.

Experiment [2] relates to advanced or metastatic BTC. The following applies: binimetinib monotherapy, advanced or metastatic BTC patients; cited from earlier work.
Experiment [3] has as its system BTC cell lines (SNU245, SNU308, SNU478, SNU869, SNU1079, SNU1196, TFK1, and HuCCT1). Description: MTT cell viability assay. It counts as cell-based. The following applies: eight BTC cell lines, 72 hours exposure. The procedure: (§1) The effect of binimetinib, 5-fluorouracil (5-FU), or combination of these drugs on cell viability was evaluated using eight BTC cell lines (SNU245, SNU308, SNU478, SNU869, SNU1079, SNU1196, TFK1, and HuCCT1). As capecitabine is converted to 5-FU in vivo, 5-FU was used as an […] of oral administration of capecitabine in this preclinical study in cell lines. In brief, confluent monolayers, which had been grown in 96 well plates, were exposed to drugs for 72 hours. Subsequently, cell viability was measured at 540 nm with a Multiskan GO microplate reader using a commercially available MTT assay, according to the manufacturer's directions. The Chou-Talalay method was used to assess a combination effect. Cells were also treated with drugs for 48 hours and the expression of thymidylate synthase (TS), programmed death-ligand 1 (PD-L1), and β-actin was determined using western blot analysis according to a published protocol. Actin was included as a loading control.

Experiment [4] deals with programmed death-ligand 1 (PD-L1). As to the kind of experiment: Western blot of protein expression in BTC cells. The following applies: 48 hours. It is filed as cell-based. The procedure: as §1

On to `Cn1cnc2c(F)c(Nc3ccc(Br)cc3F)c(C(=O)NOCCO)cc21` [binimetinib, 6-(4-bromo-2-fluorophenylamino)-7-fluoro-3-methyl-3H-benzoimidazole-5-carboxylic acid (2-hydroxyethoxy)-amide], for which, in experiment [1], the “thymidylate synthase (TS) expression” value is reported as “downregulated”. Also, in experiment [2], the DCR is 51%, the ORR is on record as 8%, the OS is given as 4.8 months and the PFS is 2.1 months. In addition, the cell viability entry in experiment [3] is given as “significant decreases in cell viability”.
`O=c1[nH]cc(F)c(=O)[nH]1` [5-FU, 5-fluorouracil]: the “thymidylate synthase (TS) expression” value in experiment [1] was “upregulated”. The PD-L1 expression result in experiment [4] is recorded as “induced PD-L1 expression”.
